Columns and labels:
Assay in all cases: relative viability (nuclei count vs DMSO), 5 days (fraction); higher = more cells survive
[1] = compound: CS(=O)(=O)N1CCN(Cc2cc3nc(-c4cccc5[nH]ncc45)nc(N4CCOCC4)c3s2)CC1 [Pictilisib] + CS(=O)(=O)CCNCc1ccc(-c2ccc3ncnc(Nc4ccc(OCc5cccc(F)c5)c(Cl)c4)c3c2)o1 [Lapatinib] (partner 2 µM)
Outline: (§1)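 Each reported value is a median over duplicate plates. It expresses relative viability: treated-well nuclei count divided by vehicle-well nuclei count. Lung cancer cell lines in 1536-well plates were dosed by pin tool a day after seeding, alone with one drug or with a fixed anchor-drug dose plus five library-drug doses (not always all listed) in √10 steps, and nuclei were counted after 5 days.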

[2] = compound: CS(=O)(=O)N1CCN(Cc2cc3nc(-c4cccc5[nH]ncc45)nc(N4CCOCC4)c3s2)CC1 [Pictilisib] + O=C(c1cc(Cc2n[nH]c(=O)c3ccccc23)ccc1F)N1CCN(C(=O)C2CC2)CC1 [Olaparib] (partner 8 µM)
Outline: as §1

[3] = compound: NC1(c2ccc(-c3nc4ccn5c(=O)[nH]nc5c4cc3-c3ccccc3)cc2)CCC1 [MK-2206] + CS(=O)(=O)N1CCN(Cc2cc3nc(-c4cccc5[nH]ncc45)nc(N4CCOCC4)c3s2)CC1 [Pictilisib] (partner 1 µM)
Outline: as §1

[4] = compound: CS(=O)(=O)N1CCN(Cc2cc3nc(-c4cccc5[nH]ncc45)nc(N4CCOCC4)c3s2)CC1 [Pictilisib] + Cc1cc(Nc2cc(N3CCN(C)CC3)nc(Sc3ccc(NC(=O)C4CC4)cc3)n2)n[nH]1 [Tozasertib] (partner 0.1 µM)
Outline: as §1

[5] = compound: NC1(c2ccc(-c3nc4ccn5c(=O)[nH]nc5c4cc3-c3ccccc3)cc2)CCC1 [MK-2206] + Cc1cc(Nc2cc(N3CCN(C)CC3)nc(Sc3ccc(NC(=O)C4CC4)cc3)n2)n[nH]1 [Tozasertib] (partner 0.1 µM)
Outline: as §1

Cell Line	relative viability ([1]; first compound 0.02 µM)	relative viability ([1]; first compound 0.06325 µM)	relative viability ([1]; first compound 0.6325 µM)	relative viability ([1]; first compound 2 µM)	relative viability ([2]; first compound 0.02 µM)	relative viability ([2]; first compound 0.06325 µM)	relative viability ([2]; first compound 0.6325 µM)	relative viability ([2]; first compound 2 µM)	relative viability ([3]; first compound 0.01 µM)	relative viability ([3]; first compound 0.03162 µM)	relative viability ([3]; first compound 0.3162 µM)	relative viability ([3]; first compound 1 µM)	relative viability ([4]; first compound 0.02 µM)	relative viability ([4]; first compound 0.06325 µM)	relative viability ([4]; first compound 0.6325 µM)	relative viability ([4]; first compound 2 µM)	relative viability ([5]; first compound 0.01 µM)	relative viability ([5]; first compound 0.03162 µM)	relative viability ([5]; first compound 0.3162 µM)	relative viability ([5]; first compound 1 µM)
NCI-H1395	1.18	1.1	0.884	0.563	0.514	0.439	0.367	0.367	0.653	0.677	0.462	0.498	0.715	0.722	0.773	0.473	0.825	0.693	0.683	0.631
NCI-H23	1.17	1.45	0.952	0.496	0.298	0.389	0.355	0.198	0.528	0.491	0.444	0.464	0.326	0.413	0.294	0.35	0.43	0.359	0.364	0.281
LOU-NH91	0.787	0.733	0.621	0.525	0.946	0.908	0.875	0.695	0.551	0.479	0.461	0.474	0.744	0.664	0.566	0.495	0.693	0.727	0.658	0.645
NCI-H2009	1.06	0.932	0.858	0.844	0.743	0.634	0.592	0.422	0.717	1.02	0.831	0.865	0.719	0.736	0.75	0.461	0.657	0.674	0.677	0.639
NCI-H358	0.49	0.503	0.311	0.29	0.627	0.729	0.479	0.271	0.378	0.333	0.355	0.347	0.0959	0.104	0.103	0.0838	0.0987	0.112	0.097	0.0994
NCI-H2126	0.801	0.748	0.63	0.462	0.911	0.894	0.713	0.496	0.522	0.47	0.491	0.468	0.826	0.807	0.73	0.517	0.814	0.897	0.822	0.775
NCI-H1437	0.768	0.859	0.605	0.313	0.635	0.67	0.71	0.546	0.472	0.399	0.366	0.263	0.383	0.41	0.324	0.242	0.408	0.425	0.396	0.349
SK-LU-1	0.977	0.792	0.665	0.481	0.451	0.492	0.409	0.367	0.584	0.478	0.535	0.474	0.362	0.304	0.3	0.233	0.212	0.334	0.376	0.291
NCI-H838	1.15	0.875	0.728	0.387	0.775	0.718	0.603	0.293	0.517	0.436	0.464	0.42	0.266	0.218	0.242	0.149	0.286	0.259	0.26	0.253
NCI-H1755	1.04	1	0.93	0.537	0.872	0.84	0.806	0.403	0.47	0.48	0.36	0.4	0.548	0.605	0.475	0.356	0.647	0.549	0.582	0.513
NCI-H2228	1.18	1.12	0.586	0.339	0.715	0.734	0.45	0.209	0.356	0.455	0.198	0.297	0.272	0.211	0.169	0.0908	0.388	0.235	0.221	0.11
NCI-H1915	0.96	1.02	0.916	0.935	0.257	0.277	0.28	0.225	0.866	1.1	0.88	0.947	0.433	0.432	0.405	0.308	0.486	0.431	0.432	0.394
NCI-H2347	0.86	0.973	0.992	0.729	0.639	0.626	0.474	0.406	0.384	0.67	0.634	0.652	0.512	0.517	0.462	0.285	0.521	0.631	0.561	0.496
HARA	0.703	0.724	0.378	0.354	0.837	0.97	0.92	0.358	0.388	0.395	0.399	0.357	0.127	0.107	0.0682	0.0525	0.0977	0.106	0.267	0.094
NCI-H2085	0.767	0.767	0.535	0.391	0.764	0.823	0.586	0.353	0.516	0.415	0.416	0.438	0.765	0.733	0.52	0.3	0.781	0.793	0.786	0.716
NCI-H650	1.27	0.997	0.798	0.689	0.372	0.37	0.44	0.348	0.804	0.901	0.87	0.81	0.733	0.76	0.66	0.478	0.703	0.76	0.751	0.772

Cell Line	relative viability ([1]; first compound 0.02 µM)	relative viability ([1]; first compound 0.06325 µM)	relative viability ([1]; first compound 0.6325 µM)	relative viability ([1]; first compound 2 µM)	relative viability ([2]; first compound 0.02 µM)	relative viability ([2]; first compound 0.06325 µM)	relative viability ([2]; first compound 0.6325 µM)	relative viability ([2]; first compound 2 µM)	relative viability ([3]; first compound 0.01 µM)	relative viability ([3]; first compound 0.03162 µM)	relative viability ([3]; first compound 0.3162 µM)	relative viability ([3]; first compound 1 µM)	relative viability ([4]; first compound 0.02 µM)	relative viability ([4]; first compound 0.06325 µM)	relative viability ([4]; first compound 0.6325 µM)	relative viability ([4]; first compound 2 µM)	relative viability ([5]; first compound 0.01 µM)	relative viability ([5]; first compound 0.03162 µM)	relative viability ([5]; first compound 0.3162 µM)	relative viability ([5]; first compound 1 µM)
NCI-H727	0.876	0.825	0.781	0.654	0.796	0.801	0.72	0.548	0.47	0.413	0.36	0.254	0.614	0.542	0.568	0.486	0.578	0.659	0.559	0.626
NCI-H1993	0.878	0.895	0.783	0.705	0.964	0.94	0.763	0.388	0.85	0.742	0.742	0.86	0.483	0.567	0.5	0.529	0.611	0.542	0.541	0.525
EMC-BAC-2	0.906	0.924	0.735	0.575	0.513	0.52	0.407	0.334	0.54	0.574	0.515	0.441	0.304	0.31	0.297	0.242	0.333	0.298	0.271	0.261
NCI-H2087	1.12	0.926	1.06	0.952	0.537	0.477	0.493	0.345	0.817	0.933	0.833	0.671	0.232	0.228	0.168	0.187	0.26	0.242	0.223	0.259
LXF-289	0.91	0.929	0.925	0.793	1.1	1.14	1.03	0.631	0.755	0.821	0.748	0.705	0.224	0.215	0.155	0.0896	0.209	0.201	0.238	0.172
NCI-H661	0.461	0.444	0.447	0.27	0.85	0.746	0.815	0.563	0.431	0.422	0.511	0.312	0.345	0.354	0.4	0.396	0.377	0.354	0.373	0.364
PC-3 [JPC-3]	0.439	0.461	0.426	0.319	1.24	1.31	1.21	0.754	0.774	0.874	0.776	0.676	0.84	0.893	0.736	0.784	0.874	0.83	0.873	0.899
HCC-366	1.04	1	0.665	0.162	0.401	0.357	0.199	0.077	0.19	0.124	0.126	0.12	0.19	0.0882	0.0364	0.0156	0.159	0.0953	0.165	0.0632
NCI-H1651	0.919	0.721	0.568	0.424	0.18	0.187	0.21	0.191	0.672	0.655	0.632	0.408	0.637	0.567	0.544	0.286	0.623	0.667	0.665	0.59
NCI-H1355	1.01	1	0.981	0.615	0.718	0.727	0.651	0.413	0.486	0.475	0.454	0.4	0.582	0.474	0.484	0.183	0.555	0.587	0.533	0.47
LC-2-ad	0.989	1.13	0.506	0.439	0.745	0.758	0.788	0.656	0.452	0.63	0.502	0.352	0.482	0.516	0.345	0.264	0.42	0.484	0.525	0.44
NCI-H1944	0.969	0.753	0.597	0.402	0.395	0.381	0.368	0.232	0.361	0.346	0.361	0.34	0.254	0.234	0.195	0.148	0.249	0.244	0.251	0.24
HCC-827	0.171	0.209	0.173	0.186	0.795	0.512	0.433	0.284	0.982	1.11	0.899	1.01	0.436	0.441	0.312	0.2	0.441	0.438	0.366	0.412
COR-L23	1.2	1.08	0.993	0.77	0.316	0.319	0.337	0.327	0.816	0.834	0.741	0.686	0.245	0.185	0.139	0.136	0.186	0.243	0.234	0.17
NCI-H3122	1.01	1.15	1.13	0.737	0.603	0.659	0.595	0.329	0.542	0.558	0.491	0.434	0.323	0.311	0.321	0.142	0.366	0.39	0.469	0.169
